ChEMBL document CHEMBL5126633, “Developing HDAC4-Selective Protein Degraders To Investigate the Role of HDAC4 in Huntington's Disease Pathology” (J Med Chem, 2022)
In brackets after ≈: the same amount, converted by molar mass.

Columns and labels:
[1] = biological target: Histone deacetylase 9 (Homo sapiens, UniProt Q9UKV0)
[2] = biological target: Histone deacetylase 4 (Homo sapiens, UniProt P56524); assay: Inhibition of recombinant HDAC4 (unknown origin) using Boc-Lys(TFA)-AMC as substrate by fluorescence based plate reader assay
Sequence of Histone deacetylase 4 (P56524 whole entry): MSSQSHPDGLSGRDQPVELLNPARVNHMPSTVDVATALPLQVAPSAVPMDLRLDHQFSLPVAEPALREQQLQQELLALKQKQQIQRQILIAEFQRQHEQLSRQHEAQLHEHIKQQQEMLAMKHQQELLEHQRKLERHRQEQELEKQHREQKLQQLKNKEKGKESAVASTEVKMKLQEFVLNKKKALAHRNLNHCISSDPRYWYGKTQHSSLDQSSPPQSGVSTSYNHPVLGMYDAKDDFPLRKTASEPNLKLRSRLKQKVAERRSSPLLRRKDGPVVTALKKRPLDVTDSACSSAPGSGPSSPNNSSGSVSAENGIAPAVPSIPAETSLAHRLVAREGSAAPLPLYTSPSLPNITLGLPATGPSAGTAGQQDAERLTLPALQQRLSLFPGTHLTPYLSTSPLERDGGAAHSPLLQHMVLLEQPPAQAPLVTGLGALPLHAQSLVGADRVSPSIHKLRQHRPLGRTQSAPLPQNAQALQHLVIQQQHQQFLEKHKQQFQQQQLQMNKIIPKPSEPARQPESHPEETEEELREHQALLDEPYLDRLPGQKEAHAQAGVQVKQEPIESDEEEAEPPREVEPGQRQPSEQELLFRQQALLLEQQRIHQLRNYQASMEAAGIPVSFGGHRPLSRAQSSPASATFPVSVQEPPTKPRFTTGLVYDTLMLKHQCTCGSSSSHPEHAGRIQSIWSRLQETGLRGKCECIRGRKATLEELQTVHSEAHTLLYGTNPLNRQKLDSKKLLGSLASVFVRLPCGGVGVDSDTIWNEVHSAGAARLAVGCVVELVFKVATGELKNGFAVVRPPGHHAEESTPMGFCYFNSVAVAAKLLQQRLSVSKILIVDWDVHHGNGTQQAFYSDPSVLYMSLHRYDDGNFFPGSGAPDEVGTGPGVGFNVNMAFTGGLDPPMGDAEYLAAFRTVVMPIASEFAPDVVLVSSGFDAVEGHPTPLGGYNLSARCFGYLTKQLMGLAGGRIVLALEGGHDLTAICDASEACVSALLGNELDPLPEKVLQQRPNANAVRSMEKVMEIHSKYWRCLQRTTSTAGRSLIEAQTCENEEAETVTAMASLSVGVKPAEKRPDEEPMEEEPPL

[3] = Kinetic aqueous solubility of the compound in PBS buffer at pH 7.4 incubated for 2 hrs under shaking condition by LC-UV analysis; type: physicochemical; details: read-out: Kinetic_solubility
[4] = Inhibition of class 2a HDAC in human Jurkat E6.1 cells using Boc-Lys(TFA)-AMC as substrate incubated for 24 hrs by plate reader assay; type: cell-based; details: Jurkat E6.1, 24 h
[5] = biological target: Class 1 histone deacetylase (Homo sapiens, UniProt Q13547+O15379+Q92769+Q9BY41); assay: Inhibition of class 1 HDAC in human Jurkat E6.1 cells using Boc-Lys(Ac)-AMC as substrate incubated for 24 hrs by plate reader assay; type: cell-based
[6] = biological target: T1, Histone deacetylase 7 (Homo sapiens, UniProt Q8WUI4); assay: Inhibition of recombinant HDAC7 (unknown origin) using Boc-Lys(TFA)-AMC as substrate by fluorescence based plate reader assay
T1 sequence (Q8WUI4 whole entry): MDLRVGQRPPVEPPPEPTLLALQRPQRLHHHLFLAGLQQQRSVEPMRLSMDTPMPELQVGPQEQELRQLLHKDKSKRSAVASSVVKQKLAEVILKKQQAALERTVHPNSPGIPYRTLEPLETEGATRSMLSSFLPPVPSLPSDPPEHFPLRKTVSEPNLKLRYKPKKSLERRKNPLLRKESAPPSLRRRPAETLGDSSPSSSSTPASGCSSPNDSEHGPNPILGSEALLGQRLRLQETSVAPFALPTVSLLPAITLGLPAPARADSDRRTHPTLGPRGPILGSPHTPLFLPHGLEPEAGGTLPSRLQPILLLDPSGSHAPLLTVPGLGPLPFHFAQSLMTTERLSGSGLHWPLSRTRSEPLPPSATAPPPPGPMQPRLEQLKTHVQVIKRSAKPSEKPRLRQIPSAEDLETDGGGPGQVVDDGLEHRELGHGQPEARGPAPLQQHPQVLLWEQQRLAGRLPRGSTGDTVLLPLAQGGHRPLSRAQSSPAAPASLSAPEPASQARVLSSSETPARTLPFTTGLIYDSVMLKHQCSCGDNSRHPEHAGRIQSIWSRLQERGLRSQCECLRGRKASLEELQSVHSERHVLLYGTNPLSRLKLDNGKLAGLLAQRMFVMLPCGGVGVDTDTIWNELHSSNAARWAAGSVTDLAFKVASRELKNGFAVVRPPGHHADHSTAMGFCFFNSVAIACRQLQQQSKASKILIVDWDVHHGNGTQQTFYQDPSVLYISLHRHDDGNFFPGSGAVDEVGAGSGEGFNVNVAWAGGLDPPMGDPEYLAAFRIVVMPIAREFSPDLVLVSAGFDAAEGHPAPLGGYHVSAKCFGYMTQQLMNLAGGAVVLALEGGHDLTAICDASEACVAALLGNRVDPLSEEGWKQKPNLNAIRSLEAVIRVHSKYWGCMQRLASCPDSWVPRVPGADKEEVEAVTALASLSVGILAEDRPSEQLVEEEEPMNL

[7] = biological target: T2, von Hippel-Lindau disease tumor suppressor/Histone deacetylase 4 (Homo sapiens, UniProt P40337+P56524); assay: Protac activity at VHL/HDAC4 in human Jurkat E6.1 cells assessed as induction of HDAC4 degradation incubated for 24 hrs by ELISA-based MSD electrochemiluminescence assay; type: cell-based
T2 sequence (P56524 whole entry): as the sequence (P56524 whole entry) above
T2 sequence (P40337 whole entry): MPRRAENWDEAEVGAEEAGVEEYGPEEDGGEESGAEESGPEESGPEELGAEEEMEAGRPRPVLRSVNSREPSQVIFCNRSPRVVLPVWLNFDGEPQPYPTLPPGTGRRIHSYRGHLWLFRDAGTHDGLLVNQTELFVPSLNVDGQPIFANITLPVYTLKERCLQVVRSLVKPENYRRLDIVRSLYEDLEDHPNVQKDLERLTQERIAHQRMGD

[8] = biological target: von Hippel-Lindau disease tumor suppressor/Histone deacetylase 4 (Homo sapiens) (UniProt P56524+P40337); assay: Protac activity at VHL/HDAC4 in human Jurkat E6.1 cells assessed as induction of HDAC4 degradation by measuring maximum degradation at 10 uM incubated for 24 hrs by ELISA-based MSD electrochemiluminescence assay relative to control; type: cell-based
Sequence of von Hippel-Lindau disease tumor suppressor/Histone deacetylase 4 (Homo sapiens) (P40337 whole entry, looked up): as the sequence (P40337 whole entry) above
Sequence of von Hippel-Lindau disease tumor suppressor/Histone deacetylase 4 (Homo sapiens) (P56524 whole entry, looked up): as the sequence (P56524 whole entry) above

[9] = biological target: Histone deacetylase 5 (Homo sapiens, UniProt Q9UQL6); assay: Inhibition of recombinant HDAC5 (unknown origin) using Boc-Lys(TFA)-AMC as substrate by fluorescence based plate reader assay
Sequence of Histone deacetylase 5 (Q9UQL6 whole entry): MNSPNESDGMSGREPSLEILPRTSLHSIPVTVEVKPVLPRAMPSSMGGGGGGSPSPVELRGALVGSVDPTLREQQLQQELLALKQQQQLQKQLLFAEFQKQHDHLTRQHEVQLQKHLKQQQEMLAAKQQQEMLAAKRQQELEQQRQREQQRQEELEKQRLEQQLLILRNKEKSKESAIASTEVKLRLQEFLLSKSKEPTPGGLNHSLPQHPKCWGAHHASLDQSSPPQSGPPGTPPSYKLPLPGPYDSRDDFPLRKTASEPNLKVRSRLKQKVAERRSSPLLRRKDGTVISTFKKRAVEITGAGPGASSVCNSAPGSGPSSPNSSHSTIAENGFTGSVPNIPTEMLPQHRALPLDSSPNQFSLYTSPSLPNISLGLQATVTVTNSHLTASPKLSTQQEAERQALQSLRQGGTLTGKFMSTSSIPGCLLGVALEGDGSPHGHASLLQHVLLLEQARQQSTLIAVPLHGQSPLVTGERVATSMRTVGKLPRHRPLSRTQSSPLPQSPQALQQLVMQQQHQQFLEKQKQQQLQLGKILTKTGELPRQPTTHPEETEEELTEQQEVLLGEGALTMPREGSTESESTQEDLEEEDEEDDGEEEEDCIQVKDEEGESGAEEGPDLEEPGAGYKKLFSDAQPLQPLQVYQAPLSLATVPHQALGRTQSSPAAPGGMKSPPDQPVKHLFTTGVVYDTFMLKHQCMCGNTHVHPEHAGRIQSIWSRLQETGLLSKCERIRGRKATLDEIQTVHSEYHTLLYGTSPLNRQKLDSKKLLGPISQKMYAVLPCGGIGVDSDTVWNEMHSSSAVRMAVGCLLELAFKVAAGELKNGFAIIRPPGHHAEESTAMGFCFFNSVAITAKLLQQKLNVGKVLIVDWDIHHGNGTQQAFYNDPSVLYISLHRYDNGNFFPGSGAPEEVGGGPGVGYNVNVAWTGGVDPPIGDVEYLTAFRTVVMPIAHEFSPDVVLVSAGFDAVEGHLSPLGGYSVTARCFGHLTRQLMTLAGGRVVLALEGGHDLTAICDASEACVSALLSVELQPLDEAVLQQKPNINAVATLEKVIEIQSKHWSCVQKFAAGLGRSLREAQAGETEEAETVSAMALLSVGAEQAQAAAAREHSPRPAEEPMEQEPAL

[10] = Efflux ratio of apparent permeability basolateral to apical over apical to basolateral side in MDCK-MDR1 cells; type: ADME, cell-based, Canis lupus familiaris; details: dog
[11] = Apparent permeability in MDCK-MDR1 cells; type: ADME, cell-based, Canis lupus familiaris; details: dog
[12] = Efflux ratio of apparent permeability basolateral to apical over apical to basolateral side in MDCK-BCRP cells; type: ADME, cell-based, Canis lupus familiaris; details: dog
[13] = biological target: T3, Vhl/Hdac4 (Mus musculus, UniProt P40338+Q6NZM9); assay: Protac activity at VHL/HDAC4 in mouse Neuro2a cells assessed as induction of HDAC4 degradation preincubated with elacridar for 1 hr followed by compound addition and measured after 24 hrs by MSD assay
T3 sequence (Q6NZM9 whole entry): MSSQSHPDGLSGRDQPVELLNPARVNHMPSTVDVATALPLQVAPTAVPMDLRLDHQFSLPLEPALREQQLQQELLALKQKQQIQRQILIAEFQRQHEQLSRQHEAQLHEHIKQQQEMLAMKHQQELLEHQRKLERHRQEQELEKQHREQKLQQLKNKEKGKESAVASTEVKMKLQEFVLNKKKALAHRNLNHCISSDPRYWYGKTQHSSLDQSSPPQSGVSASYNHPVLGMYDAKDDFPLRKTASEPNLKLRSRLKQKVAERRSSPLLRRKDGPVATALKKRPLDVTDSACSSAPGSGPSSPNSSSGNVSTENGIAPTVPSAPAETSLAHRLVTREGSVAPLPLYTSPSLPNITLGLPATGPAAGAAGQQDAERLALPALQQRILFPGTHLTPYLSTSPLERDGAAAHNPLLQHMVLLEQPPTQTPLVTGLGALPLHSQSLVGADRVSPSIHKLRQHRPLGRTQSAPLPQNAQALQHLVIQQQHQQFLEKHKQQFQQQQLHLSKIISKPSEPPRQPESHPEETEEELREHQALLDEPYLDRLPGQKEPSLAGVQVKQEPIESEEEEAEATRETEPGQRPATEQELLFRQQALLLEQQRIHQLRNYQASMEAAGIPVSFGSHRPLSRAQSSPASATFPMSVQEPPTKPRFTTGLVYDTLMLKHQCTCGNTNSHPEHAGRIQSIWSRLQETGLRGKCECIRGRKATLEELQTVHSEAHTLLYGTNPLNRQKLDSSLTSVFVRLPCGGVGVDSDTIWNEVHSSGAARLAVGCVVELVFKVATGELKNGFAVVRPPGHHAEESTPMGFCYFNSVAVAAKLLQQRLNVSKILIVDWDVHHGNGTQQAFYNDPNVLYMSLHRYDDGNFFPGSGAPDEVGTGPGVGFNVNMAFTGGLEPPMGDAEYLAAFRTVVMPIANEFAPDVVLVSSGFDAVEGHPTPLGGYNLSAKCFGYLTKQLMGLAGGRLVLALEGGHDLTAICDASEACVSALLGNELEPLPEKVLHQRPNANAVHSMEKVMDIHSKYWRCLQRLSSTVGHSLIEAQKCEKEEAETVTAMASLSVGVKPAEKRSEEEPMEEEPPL
T3 sequence (P40338 whole entry): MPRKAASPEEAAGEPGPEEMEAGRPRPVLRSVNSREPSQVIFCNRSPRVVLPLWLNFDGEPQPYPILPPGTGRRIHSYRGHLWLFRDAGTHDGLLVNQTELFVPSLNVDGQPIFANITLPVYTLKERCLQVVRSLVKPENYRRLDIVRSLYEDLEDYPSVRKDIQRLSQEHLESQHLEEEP

[14] = Efflux ratio of apparent permeability basolateral to apical over apical to basolateral side in MDCK cells; type: ADME, cell-based, Canis lupus familiaris; details: dog
[15] = Selectivity ratio of DC50 for protac activity at VHL/HDAC4 in mouse Neuro2a cells to DC50 for protac activity at VHL/HDAC4 in human Jurkat E6.1 cells; type: cell-based
[16] = biological target: T2, von Hippel-Lindau disease tumor suppressor/Histone deacetylase 4; assay: Protac activity at VHL/HDAC4 in human Jurkat E6.1 cells assessed as induction of HDAC4 degradation incubated for 24 hrs by immunoblotting analysis; type: cell-based
[17] = biological target: T2, von Hippel-Lindau disease tumor suppressor/Histone deacetylase 4; assay: Protac activity at VHL/HDAC4 in human Jurkat E6.1 cells assessed as induction of HDAC4 degradation incubated for 24 hrs in absence of elacridar by Western blot analysis; type: cell-based
[18] = biological target: T2, von Hippel-Lindau disease tumor suppressor/Histone deacetylase 4; assay: Protac activity at VHL/HDAC4 in human Jurkat E6.1 cells assessed as induction of HDAC4 degradation preincubated with elacridar for 1 hr followed by compound addition and measured after 24 hrs by Western blot analysis; type: cell-based
[19] = Apparent permeability in MDCK-BCRP cells; type: ADME, cell-based, Canis lupus familiaris; details: dog
[20] = Apparent permeability in MDCK cells; type: ADME, cell-based, Canis lupus familiaris; details: dog
[21] = biological target: T3, Vhl/Hdac4; assay: Protac activity at VHL/HDAC4 in Q175 KI mouse cortical neuron assessed as induction of HDAC4 degradation incubated for 4 to 72 hrs in absence of elacridar by MSD assay; type: cell-based
[22] = biological target: T3, Vhl/Hdac4; assay: Protac activity at VHL/HDAC4 in mouse Neuro2a cells assessed as induction of HDAC4 degradation incubated for 24 hrs in absence of elacridar by MSD assay

Sequence of Histone deacetylase 9 (Q9UKV0 whole entry): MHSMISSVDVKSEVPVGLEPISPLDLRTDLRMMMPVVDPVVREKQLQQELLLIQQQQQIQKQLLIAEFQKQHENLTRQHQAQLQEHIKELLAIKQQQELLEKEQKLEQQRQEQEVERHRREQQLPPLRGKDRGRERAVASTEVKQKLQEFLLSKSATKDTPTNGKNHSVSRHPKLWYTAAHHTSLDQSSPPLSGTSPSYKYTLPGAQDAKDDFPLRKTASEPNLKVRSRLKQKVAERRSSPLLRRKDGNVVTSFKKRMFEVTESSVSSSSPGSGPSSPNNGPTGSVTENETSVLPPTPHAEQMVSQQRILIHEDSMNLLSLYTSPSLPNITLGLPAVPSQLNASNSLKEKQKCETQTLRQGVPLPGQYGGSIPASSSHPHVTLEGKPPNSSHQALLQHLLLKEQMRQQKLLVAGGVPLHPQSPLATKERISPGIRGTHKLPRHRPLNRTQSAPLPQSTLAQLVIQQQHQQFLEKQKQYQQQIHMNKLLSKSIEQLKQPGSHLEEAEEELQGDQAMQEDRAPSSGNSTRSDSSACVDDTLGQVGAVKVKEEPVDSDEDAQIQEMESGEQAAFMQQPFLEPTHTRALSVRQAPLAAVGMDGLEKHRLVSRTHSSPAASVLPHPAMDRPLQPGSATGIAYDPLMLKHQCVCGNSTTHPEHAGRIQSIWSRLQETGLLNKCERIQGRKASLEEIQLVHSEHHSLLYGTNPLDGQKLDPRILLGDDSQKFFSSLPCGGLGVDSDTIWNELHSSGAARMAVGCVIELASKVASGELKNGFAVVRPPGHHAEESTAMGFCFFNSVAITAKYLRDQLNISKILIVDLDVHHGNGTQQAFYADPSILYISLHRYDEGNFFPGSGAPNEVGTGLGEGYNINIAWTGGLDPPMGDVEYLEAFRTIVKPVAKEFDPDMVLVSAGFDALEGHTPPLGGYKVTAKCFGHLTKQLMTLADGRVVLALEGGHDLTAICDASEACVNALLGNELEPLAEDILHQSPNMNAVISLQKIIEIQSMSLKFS

## Cc1ncsc1-c1ccc(CNC(=O)[C@@H]2C[C@@H](O)CN2C(=O)[C@@H](NC(=O)COCCOCCOCCOCC(F)(F)c2cnc(-c3ccc(C(C(=O)NO)c4ccccc4F)cc3)nc2)C(C)(C)C)cc1 (stereo partly drawn)
[1]
  IC50: 340 nM
[2]
  IC50: 560 nM
[3]
  solubility kinetic at 2 h: 5 µM (≈ 5.03 µg/mL)
[4]
  IC50: 160 nM
[5]
  IC50: > 5000 nM
[6]
  IC50: 210 nM
[7]
  EC50: 48 nM
[8]
  Emax: 82%
[9]
  IC50: 310 nM

## CCCN(CCCCOCCOCCOCCOCC(=O)N[C@H](C(=O)N1C[C@H](O)C[C@H]1C(=O)NCc1ccc(-c2scnc2C)cc1)C(C)(C)C)C[C@@H](C)NC(=O)c1ccc(-c2noc(C(F)(F)F)n2)cc1
[1]
  IC50: 220 nM
[2]
  IC50: 100 nM
[3]
  solubility kinetic at 2 h: 132 µM (≈ 136 µg/mL)
[4]
  IC50: 2 nM
[5]
  IC50: 2800 nM
[6]
  IC50: 230 nM
[7]
  EC50: 4 nM
[8]
  Emax: 85%
[9]
  IC50: 250 nM

## Cc1ncsc1-c1ccc(CNC(=O)[C@@H]2C[C@@H](O)CN2C(=O)[C@@H](NC(=O)COCCOCCOCC(F)(F)c2cnc(-c3ccc(C(C(=O)NO)c4ccccc4F)cc3)nc2)C(C)(C)C)cc1 (mixture of isomers)
[1]
  IC50: 290 nM
[2]
  IC50: 410 nM
[3]
  solubility kinetic at 2 h: 5.2 µM
[4]
  IC50: 150 nM
[5]
  IC50: > 5000 nM
[6]
  IC50: 210 nM
[7]
  EC50: 28 nM
[8]
  Emax: 77%
[9]
  IC50: 230 nM

## CCCN(CCCCOCCOCCOCCOCCOCC(=O)N[C@H](C(=O)N1C[C@H](O)C[C@H]1C(=O)NCc1ccc(-c2scnc2C)cc1)C(C)(C)C)C[C@@H](C)NC(=O)c1ccc(-c2noc(C(F)(F)F)n2)cc1
[10]
  Ratio: 7
[11]
  Papp: 2.6 ×10⁻⁶ cm/s
[1]
  IC50: 94 nM
[2]
  IC50: 92 nM
[12]
  Ratio: 5
[3]
  solubility kinetic at 2 h: 144 µM (≈ 155 µg/mL)
[4]
  IC50: 6 nM
[13]
  EC50: 2.3 nM
[14]
  Ratio: 13
[15]
  Ratio EC50: 20
[5]
  IC50: > 5000 nM
[16]
  EC50: 2 nM
[17]
  EC50: 1.7 nM
[18]
  EC50: 1.6 nM
[19]
  Papp: 1.4 ×10⁻⁶ cm/s
[6]
  IC50: 150 nM
[20]
  Papp: 2.1 ×10⁻⁶ cm/s
[7]
  EC50: 4 nM
[8]
  Emax: 78%
[21]
  EC50: 1.1 nM
[9]
  IC50: 150 nM
[22]
  EC50: 81 nM

## CCCN(CCCCOCCOCCOCC(=O)N[C@H](C(=O)N1C[C@H](O)C[C@H]1C(=O)NCc1ccc(-c2scnc2C)cc1)C(C)(C)C)C[C@@H](C)NC(=O)c1ccc(-c2noc(C(F)(F)F)n2)cc1
[1]
  IC50: 130 nM
[2]
  IC50: 90 nM
[3]
  solubility kinetic at 2 h: 100 µM (≈ 98.7 µg/mL)
[4]
  IC50: 33 nM
[5]
  IC50: 4300 nM
[6]
  IC50: 220 nM
[7]
  EC50: 3 nM
[8]
  Emax: 72%
[9]
  IC50: 140 nM
